“And” between values parts separate entries of the source, which are not always exact repeats. Identical values can stand only once. Like-named read-outs stand apart in the source and are kept apart here.
Legend:
[1] = tested on: VEGF-induced neo-angiogenesis; test: VEGF-induced neo-angiogenesis in the rat corneal micropocket; assay type: in vivo; settings: administered orally for 10 days
Excerpt: (§1) The salt of the present invention is an inhibitor of vascular endothelial growth factor (VEGF)-induced angiogenesis. […] These assay systems are more fully described in WO 02/02116. The salt of the present invention is, thus, effective in treating cancer and inhibiting tumor growth.

[2] = Hygroscopicity / moisture sorption (weight gain vs RH); assay type: physicochemical
Excerpt: The different water contents prompted an investigation into the moisture sorption characteristics of those lots of crystalline FB-HCl that were not anhydrous. […] Crystalline FB-HCl material capable of water sorption is hereafter referred to as “hygroscopic F-I”.

[3] = Plasma pharmacokinetics after single oral gavage, cross-over design; assay type: in vivo; settings: fed female beagle dogs; for AUC0-24 / AUC0-inf / Cmax: single oral 5 mg/kg by gavage, individual animals 1-6, 5 mg/kg
Description: The 6 dogs were randomized into two treatment groups to receive single doses of FB Form I followed by a single dose of F-I two weeks later, or vice versa. On Days 1 and 14, 3 dogs received FB Form 1 and 3 dogs received F-I, and blood samples were collected at 0.5, 1, 2, 3, 4, 8, 12 and 24 hours post dosing. Concentrations of FB Form I were determined by liquid chromatography tandem mass spectrometry.

[4] = tested on: VEGF-stimulated proliferation of HUVEC cells; test: VEGF-stimulated proliferation of HUVEC cells in culture; assay type: cell-based; settings: 72 hours of exposure
Excerpt: as §1

[5] = Intrinsic dissolution of 100 mg compact; assay type: physicochemical; settings: for % of 100 mg Compact Dissolved in 10 Minutes: Dissolution Medium 0.1 N HCl
Description: To confirm that variability in the hygroscopicity of F-I lots should not adversely impact bioavailability, intrinsic dissolution rates were also measured for the hygroscopic and anhydrous F-I. For comparison purposes, the intrinsic dissolution rate of FB Form I was also measured.

[6] = Equilibrium solubility in aqueous media at ambient temperature, HPLC after 24 hours; assay type: physicochemical; settings: for Amt Dissolved: 24 hours equilibration
Description: Extensive equilibrium solubility determinations were undertaken for both hygroscopic and anhydrous F-I in a variety of aqueous media at ambient temperature. Additionally, the equilibrium solubility of FB Form I was measured at ambient temperature.

[7] = 0.01 N HCl, ambient temperature
[8] = SIF, fed pH 5.0, ambient temperature
[9] = pH 2.2 buffer, ambient temperature

| Compound | hygroscopicity [2] | dissolution of a 100 mg compact within 10 minutes [5] | % of 100 mg Compact Dissolved in 10 Minutes [5] | Filtrate pH ([6]; 0.01 N HCl) | Amt Dissolved [6, 7] | Filtrate pH ([6]; SIF, fed pH 5.0) | Amt Dissolved [6, 8] | Filtrate pH ([6]; pH 2.2 buffer) | Amt Dissolved [6, 9] | further results |
| --- | --- | --- | --- | --- | --- | --- | --- | --- | --- | --- |
| Cl.Cn1cc(C2=C(c3cn(C4CCN(Cc5ccccn5)CC4)c4ccccc34)C(=O)NC2=O)c2ccccc21 [F-I] | not significantly hygroscopic |  |  |  |  |  |  |  |  | inhibition of VEGF-induced neo-angiogenesis in the rat corneal micropocket [1]: highly effective inhibitor; weight gain ([2]; at 95% RH): < 2%; hygroscopicity ([2]; between 0-70% RH): relatively non-hygroscopic; plasma exposure (AUC 0 to 24 hr and 0 to infinity) compared with FB Form I ([3]; single oral 5 mg/kg): significantly higher; AUC0-24 ([3]; mono-hydrochloride): 3.5923 µM·h and 1.735 µM·h and 2.97 µM·h and 4.0644 µM·h and 6.1501 µM·h and 2.9445 µM·h; AUC0-inf ([3]; mono-hydrochloride): 3.8286 µM·h and 1.7984 µM·h and 3.0161 µM·h and 4.2008 µM·h and 6.6308 µM·h and 2.9983 µM·h; Cmax ([3]; mono-hydrochloride): 481 nM and 327 nM and 679 nM and 501 nM and 774 nM and 450 nM; inhibition of VEGF-stimulated proliferation of HUVEC cells [4]: potent inhibitor |
| Cn1cc(C2=C(c3cn(C4CCN(Cc5ccccn5)CC4)c4ccccc34)C(=O)NC2=O)c2ccccc21 [FB Form I] |  | > 10% | >30% | 2.20 | 0.279 mg/mL and 0.355 mg/mL | 4.94 | 0.073 mg/mL and 0.074 mg/mL | 2.21 | 0.346 mg/mL and 0.336 mg/mL | AUC0-24 [3]: 2.4431 µM·h and 0.3893 µM·h and 2.0924 µM·h and 3.4775 µM·h and 5.1195 µM·h and 2.2702 µM·h; AUC0-inf [3]: 2.5786 µM·h and 0.4006 µM·h and 2.1139 µM·h and 3.6031 µM·h and 5.3331 µM·h and 2.3063 µM·h; Cmax [3]: 336 nM and 99.8 nM and 532 nM and 600 nM and 552 nM and 718 nM |
| Cl.Cn1cc(C2=C(C3CCN(Cc4ccccn4)CC3)C(=O)NC2=O)c2ccccc21 [Hygroscopic F-I] |  | no appreciable dissolution | <<0.5% | 2.25 | 0.046 mg/mL and 0.053 mg/mL | 4.93 | 0.014 mg/mL and 0.015 mg/mL | 2.26 | 0.324 mg/mL and 0.352 mg/mL | maximum moisture sorption ([2]; at 40% RH): 1.6% |
| tartrate | only slightly hygroscopic |  |  |  |  |  |  |  |  | weight gain ([2]; at RH's up to 70%): ~1% |
